The values that follow come from patent US20250064809A1, “Inhibitors of Mutant RET Kinases for use in Treating Cancer” (Stemline Therapeutics, Inc., priority 2021, published 2025).

As usually defined, the IC50 is the concentration at which inhibition is half-maximal. Lower therefore signals greater potency.

One assay has as its system Ba/F3 KIF5B-RET-G810C. Put plainly: In vitro cell viability assay (CellTiter-Glo). The format is cell-based. To be noted: Mus musculus, BaF3, 72 h, 3 days. For orientation: Cellular ATP, detected with luciferase, serves as a proxy for viable cell number.
Assay [1] deals with Ba/F3 cells expressing KIF5B-RET with a G810 RET mutant domain. Put plainly: In vitro cell viability assay, mutant RET kinase cell lines compared to wild type. The format is cell-based, mouse. To be noted: Ba/F3 KIF5B-RET G810R, G810C, G810S versus wild type.
Another assay has as its system Ba/F3 KIF5B-RET. Put plainly: In vitro cell viability assay (CellTiter-Glo). The format is cell-based. Conditions: Mus musculus, BaF3, 72 h; Ba/F3 KIF5B-RET (wild type RET), 3 days.
Another assay has as its system Ba/F3 KIF5B-RET-G810R. Put plainly: In vitro cell viability assay (CellTiter-Glo). The class given is cell-based. Conditions: Mus musculus, BaF3, 72 h, 3 days.
In another assay the test system is Ba/F3 KIF5B-RET-G810S. Put plainly: In vitro cell viability assay (CellTiter-Glo). The class given is cell-based. To be noted: Mus musculus, BaF3, 72 h, 3 days.

On to `COc1ccc(CN2C3CC2CN(c2ccc(-c4cc(OCC(C)(C)O)cn5ncc(C#N)c45)cn2)C3)cn1` [Selpercatinib, selpercatinib], for which the IC50 in the assay with Ba/F3 KIF5B-RET-G810C stood at 1080 nM; in the assay with Ba/F3 KIF5B-RET it was 24.4 nM; with Ba/F3 KIF5B-RET-G810R it was 986 nM; with Ba/F3 KIF5B-RET-G810S, 204 nM. Moreover, in assay [1], the “increase in IC50 values against mutant RET kinase cell lines as compared to wild type RET kinase cell lines” value was 8-44 fold.

Regarding `CO[C@]1(C(=O)N[C@@H](C)c2ccc(-n3cc(F)cn3)nc2)CC[C@H](c2nc(C)cc(Nc3cc(C)[nH]n3)n2)CC1` [Pralsetinib, pralsetinib], the half-maximal inhibitory concentration (IC50) with Ba/F3 KIF5B-RET-G810C stood at 551 nM; with Ba/F3 KIF5B-RET, 29.6 nM; with Ba/F3 KIF5B-RET-G810R, 1300 nM; in the assay on Ba/F3 KIF5B-RET-G810S, 90.5 nM. In assay [1], the “increase in IC50 values against mutant RET kinase cell lines as compared to wild type RET kinase cell lines” value is on record as 3-44 fold.
